Reference: patent US10081629B2, “Amide derivatives and pharmaceutically acceptable salts thereof, preparation method thereof and medicinal application thereof” (Shanghai Hengrui Pharmaceutical Co., Ltd., priority 2014, dated 2018)

How the values were obtained:
human mPGES1 = human mPGES1 (Homo sapiens (Human), UniProt O14684); assay: Inhibition activity for human mPGES1 (enzyme assay, PGE2 HTRF); type: biochemical; conditions: membrane protein from HEK-293 F transfected with human mPGES1
[1] = Pharmacokinetics assay in rats; type: in vivo; conditions: both sexes, Sprague-Dawley, rat, plasma, po, SD rats, intragastric, 5 mg/kg
Method: Rats were used as test animals. The drug concentration in plasma at different time points was determined by LC/MS/MS after administration of the compounds of Example 8, Example 11, Example 14, Example 17, Example 20, Example 27, Example 33, Example 35, Example 36, Example 37 and Example 48 to rats. The pharmacokinetic behavior of the present compounds was studied and evaluated in rats.
Forty four (44) healthy adult Sprague-Dawley (SD) rats, half male and half female, which were purchased from SINO-BRITSH SIPPR/BK LAB. ANIMAL LTD., CO, with Certificate No.: SCXK (Shanghai) 2008-0016, were divided into 11 groups, with 4 rats in each group.
The appropriate amount of test compounds was weighed, and mixed with 25 μL Tween 80 and Labrasol to prepare a 0.6 mg/mL suspension by ultrasonication.
After an overnight fast, 44 SD rats, half male and half female, were divided into 11 groups, and administered intragastrically at a dose of 5.0 mg/kg and an administration volume of 10 mL/kg.
Blood (0.1 mL) was sampled from the orbital sinus before administration and 0.5 h, 1.0 h, 2.0 h, 4.0 h, 6.0 h, 8.0 h, 11.0 h, and 24.0 h after administration. The samples were stored in EDTA anticoagulation tubes, and centrifuged for 5 minutes at 3,500 rpm to separate the blood plasma. The plasma samples were stored at −20° C. The rats were fed 2 hours after administration.
The plasma concentration of the test compounds in rat after intragastric administration was determined by LC-MS/MS. The linearity of the method is 5.00-2000 ng/mL and 1.00-2000 ng/ml, and the minimum of quantification is 5.00 ng/mL and 1.00 ng/mL.
Plasma samples were analyzed after pretreatment by protein precipitation.

[2] = system: secretion of PGE2 by A549 cells stimulated with IL-1β; assay: Inhibition of the secretion of PGE2 by A549 cells stimulated with IL-1β; type: cell-based; conditions: Homo sapiens, A549; IL-1β 0.2 ng/mL, 24 hours
Procedure, shortened: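 A549 cells pretreated 30 min at 37° C with compound (seven concentrations, 0.011–11111 nM) before IL-1β at 0.2 ng/mL final, then 24 h at 37° C.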

Chain of human mPGES1 (O14684 whole entry): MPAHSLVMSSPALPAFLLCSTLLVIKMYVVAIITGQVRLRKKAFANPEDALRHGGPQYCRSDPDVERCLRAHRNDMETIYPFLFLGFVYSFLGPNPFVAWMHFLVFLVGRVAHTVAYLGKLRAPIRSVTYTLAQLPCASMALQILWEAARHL

Cn1c(-c2cccc(Cl)c2)cc2cc(NC(=O)c3cc(CNC(=O)C(C)(C)F)cnc3C(F)F)ccc21 [Example 33, N-(2-(3-Chlorophenyl)-1-methyl-1H-indol-5-yl)-2-(difluoromethyl)-5-(((2-fluoro-2-methyl-propanoyl)amino)methyl)nicotinamide]
IC50 (human mPGES1): 5.33 nM
Vd/F ([1]; read-out: Apparent Distribution Volume Vz/F): 4.82 ± 0.961 L/kg
AUC ([1]; read-out: Area Under Curve AUC): 5720 ± 1210 ng·h/mL
MRT ([1]; read-out: Mean Residence Time MRT): 7.6 ± 1.09 h
Cmax ([1]; read-out: Plasma Conc. Cmax): 557 ± 80 ng/mL
IC50 [2]: 12.8 nM
